Results as given in article PMC11053136 (Nature Communications, 2024).
Entries after “also recorded” stand apart in the source; their conditions may differ.

What was measured:
perforin = perforin (Homo sapiens, UniProt P14222); type: cell-based
SARS-CoV2 main protease = SARS-CoV2 main protease (Severe acute respiratory syndrome coronavirus 2, UniProt P0DTD1); type: biochemical
[1] = molecular target: protein tyrosine phosphatase PTP1B (Homo sapiens, UniProt P18031); type: biochemical
PLY [2] = molecular target: T1, PLY (Streptococcus pneumoniae, UniProt Q7ZAK5)
wild-type PLY [3] = molecular target: T2, wild-type PLY (Streptococcus pneumoniae, UniProt Q7ZAK5); assay: biochemical; type: binding
PLY [4] = molecular target: T1, PLY; assay: cell-based; type: cell-based
K562 cells = details: 6 µM
[5] = test system: Streptococcus pneumoniae (S.pn.) D39Δcps; type: cell-based
wild-type PLY [6] = molecular target: T2, wild-type PLY; assay: cell-based; type: cell-based
Perfringolysin O (PFO) = Perfringolysin O (PFO) (Clostridium perfringens, UniProt P0C2E9); assay: cell-based
Sequence of Perfringolysin O (PFO) (P0C2E9 29-500 limits assumed): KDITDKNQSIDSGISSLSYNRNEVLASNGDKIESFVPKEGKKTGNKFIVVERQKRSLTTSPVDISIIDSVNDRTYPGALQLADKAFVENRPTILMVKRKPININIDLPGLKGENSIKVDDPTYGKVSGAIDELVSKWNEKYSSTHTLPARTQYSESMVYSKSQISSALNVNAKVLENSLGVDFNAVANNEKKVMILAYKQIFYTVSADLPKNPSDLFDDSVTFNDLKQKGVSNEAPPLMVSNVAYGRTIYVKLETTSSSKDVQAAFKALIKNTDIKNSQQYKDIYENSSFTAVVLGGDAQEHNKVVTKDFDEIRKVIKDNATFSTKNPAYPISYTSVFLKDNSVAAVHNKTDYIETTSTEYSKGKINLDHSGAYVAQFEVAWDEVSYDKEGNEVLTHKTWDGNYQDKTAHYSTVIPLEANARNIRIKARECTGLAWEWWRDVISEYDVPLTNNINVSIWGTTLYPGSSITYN

T2 sequence (Q7ZAK5 whole entry, looked up): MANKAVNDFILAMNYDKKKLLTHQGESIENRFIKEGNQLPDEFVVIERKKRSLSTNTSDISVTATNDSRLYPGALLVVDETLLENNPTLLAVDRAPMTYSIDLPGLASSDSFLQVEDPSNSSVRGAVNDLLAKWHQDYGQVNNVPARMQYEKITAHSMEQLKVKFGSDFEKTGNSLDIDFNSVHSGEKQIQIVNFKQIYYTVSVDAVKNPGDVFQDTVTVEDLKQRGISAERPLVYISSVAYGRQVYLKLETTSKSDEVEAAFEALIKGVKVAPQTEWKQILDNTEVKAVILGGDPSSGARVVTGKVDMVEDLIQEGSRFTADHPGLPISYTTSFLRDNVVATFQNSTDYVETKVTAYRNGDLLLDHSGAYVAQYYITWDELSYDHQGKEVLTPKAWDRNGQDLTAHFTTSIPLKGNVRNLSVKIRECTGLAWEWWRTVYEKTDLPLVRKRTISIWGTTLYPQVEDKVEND
T1 sequence (Q7ZAK5 whole entry, looked up): as above
Sequence of protein tyrosine phosphatase PTP1B (P18031 whole entry): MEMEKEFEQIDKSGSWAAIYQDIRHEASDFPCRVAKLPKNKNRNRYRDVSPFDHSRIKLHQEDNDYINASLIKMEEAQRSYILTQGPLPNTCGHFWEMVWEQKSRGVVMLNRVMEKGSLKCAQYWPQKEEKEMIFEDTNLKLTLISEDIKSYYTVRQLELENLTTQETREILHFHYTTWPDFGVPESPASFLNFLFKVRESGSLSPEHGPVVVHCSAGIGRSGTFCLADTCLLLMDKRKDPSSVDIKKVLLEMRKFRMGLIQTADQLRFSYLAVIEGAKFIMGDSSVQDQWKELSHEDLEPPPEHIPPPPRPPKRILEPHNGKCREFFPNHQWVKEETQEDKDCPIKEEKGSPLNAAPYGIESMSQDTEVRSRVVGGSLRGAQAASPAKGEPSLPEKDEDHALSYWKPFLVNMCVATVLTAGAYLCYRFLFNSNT
Sequence of perforin (P14222 22-555): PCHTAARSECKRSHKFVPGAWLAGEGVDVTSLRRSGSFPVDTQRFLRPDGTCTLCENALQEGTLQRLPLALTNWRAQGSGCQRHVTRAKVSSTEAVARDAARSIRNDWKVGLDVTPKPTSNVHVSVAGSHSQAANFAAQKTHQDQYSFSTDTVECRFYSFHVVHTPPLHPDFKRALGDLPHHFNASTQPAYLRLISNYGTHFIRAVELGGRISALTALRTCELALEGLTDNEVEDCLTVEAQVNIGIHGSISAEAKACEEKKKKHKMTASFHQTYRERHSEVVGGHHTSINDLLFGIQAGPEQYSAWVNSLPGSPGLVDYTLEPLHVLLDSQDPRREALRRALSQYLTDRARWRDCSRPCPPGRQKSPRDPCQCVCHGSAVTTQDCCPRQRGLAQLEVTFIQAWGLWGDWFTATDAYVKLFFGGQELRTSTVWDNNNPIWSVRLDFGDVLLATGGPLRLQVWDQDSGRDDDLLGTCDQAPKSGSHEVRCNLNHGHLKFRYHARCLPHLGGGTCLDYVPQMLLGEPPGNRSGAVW

`Cc1cc(C)cc(N2C(=O)NC(=O)/C(=C\c3ccc(-c4ccc(Cl)cc4Cl)o3)C2=O)c1` [PB-3] was tested, and the “Inhibition of lysis of K562 cells by NK cells” value (perforin) was “did not inhibit”, the “reduction of median target cell lysis compared to DMSO control” value (perforin) was 15.6% and the “Inhibition of SARS-CoV2 main protease” value (SARS-CoV2 main protease) was “inactive; also recorded: without detecting inhibition”. The “Inhibition of PTP1B” value [1] was “inactive; also recorded: without detecting inhibition”, the “Effect of inhibitor alone on A549 cells” value (PLY [2]) was “harmless to cells” and the “Protection of A549 cells from PLY (microscopy)” value (PLY [2]) was “effectively protected cells from PLY-associated cellular damage”. The Kd (wild-type PLY [3]) was 0.256 µM, the residence time (wild-type PLY [3]) was 36.2 min and the koff (wild-type PLY [3]; read-out: koff (off-rate)) was 0.00046 s⁻¹. The kon (wild-type PLY [3]; read-out: kon (on-rate)) was 1800 M⁻¹ s⁻¹, the “Inhibition of PLY-induced cellular damage, LDH assay (qualitative)” value (PLY [4]) was “significant concentration-dependent inhibition of PLY” and the “prevented cellular damage (LDH release)” value (PLY [4]) was “more than 95%”. For the same molecule, the inhibition at 1 µM (PLY [4]; A549, read-out: inhibition of PLY in cellular experiments at 1 µM) was about 20%, the inhibition at 6 µM (PLY [4]; A549, read-out: inhibition of PLY in cellular experiments at 6 µM, 6 µM, after 24 h) was over 90% and the “Cytotoxicity for K562 cells alone” value (K562 cells) was “not cytotoxic”. The “Survival of A549 cells infected with D39Δcps” value [5] was “almost entirely survived” and the “duration of activity in the cellular infection assays” value [5] was “about 4 h”.

With `Cc1cc(C)cc(N2C(=O)CC(=O)NC2=O)c1` [PB-2.3] the “IC50 (95% CI), inhibition of hemolysis by wild-type PLY” value (wild-type PLY [6]) was “Inactive” and the “PLY inhibition in the hemolysis assay (qualitative)” value (wild-type PLY [6]) was “no inhibitors; also recorded: did not inhibit PLY alone”.

With `O=Cc1ccc(-c2ccc(Cl)cc2Cl)o1` [PB-3.1] the “PLY inhibition in the hemolysis assay (qualitative)” value (wild-type PLY [6]) was “no inhibitors; also recorded: did not inhibit PLY alone”.

`COc1ccc(C=C2C(=O)NC(=O)NC2=O)cc1COc1ccc(F)cc1F` [PB-1] was tested, and the “Inhibition of PLY-induced cellular damage, LDH assay (qualitative)” value (PLY [4]) was “significant concentration-dependent inhibition of PLY”, the IC50 (wild-type PLY [6]) was 38 ± 6 µM and the “Inhibition of hemoglobin release, virtual hit screen” value (wild-type PLY [6]) was “actively hindering hemoglobin release at all three concentrations; also recorded: displayed inhibition”. It also gave an IC50 (Perfringolysin O (PFO)) of 4.6 µM.
